Patent publication US12139487B2, “Compounds and uses thereof” (Foghorn Therapeutics Inc., priority 2022, dated 2024)

How the values were obtained:
[1] = tested on: BRM-dependent transcription (BRG1 mutant lung cancer cell line A549); experiment: BRM-dependent transcription, MMTV luciferase reporter in BRG1 mutant A549 cells; type: cell-based; details: Table 11; for IC50: A549-MMTV luciferase reporter, dexamethasone induced, 6 hours; for Ratio (MDA-MMTV IC50 (μM) divided by A549-MMTV IC50 (μM)): MMTV luciferase reporter cell lines, selectivity BRG1/BRM
Description: The potential inhibitory effects of compounds on BRG1 and BRM dependent transcription was study by testing the activity of against the BRG1 mutant lung cancer cell line A549 and a MDA cell line with BRM removed by CRISPR. Both cell lines were genetically engineered with a BRG1 or BRM-dependent mouse mammary tumor virus luciferase reporter. Luciferase transcription was induced by dexamethasone in the presence of compound at different concentrations and luminescence was measured using a plate reader 6 hours after stimulation.

BRM = biological target: T1, BRM (Homo sapiens, UniProt P51531); experiment: ATPase catalytic activity assay (ADP-Glo), BRM; type: biochemical; details: ATPase assay, selectivity BRG1/BRM, Table 10
T1 construct: made in house; host or cells: High Five insect cells
Description: The ATPase catalytic activity of BRM or BRG-1 was measured by an in vitro biochemical assay using ADP-Glo™ (Promega, V9102). The ADP-Glo™ kinase assay is performed in two steps once the reaction is complete. The first step is to deplete any unconsumed ATP in the reaction. The second step is to convert the reaction product ADP to ATP, which will be utilized by the luciferase to generate luminesce and be detected by a luminescence reader, such as Envision.
The assay reaction mixture […] contains 30 nM of BRM or BRG-1, 20 nM salmon sperm DNA (from Invitrogen, UltraPure™ Salmon Sperm DNA Solution, cat #15632011), and 400 μM of ATP in the ATPase assay buffer, which comprises of 20 mM Tris, pH 8, 20 mM MgCl2, 50 mM NaCl, 0.1% Tween-20, and 1 mM fresh DTT (Pierce™ DTT (Dithiothreitol), cat #20290). The reaction is initiated by the addition of the 2.5 μL ATPase solution to 2.5 μL ATP/DNA solution on low volume white Proxiplate-384 plus plate (PerkinElmer, cat #6008280) and incubates at room temperature for 1 hour. Then, following addition of 5 μL of ADP-Glo™ Reagent provided in the kit, the reaction incubates at room temperature for 40 minutes. Then, 10 μL of Kinase Detection Reagent provided in the kit is added to convert ADP to ATP, and the reaction incubates at room temperature for 60 minutes. Finally, luminescence measurement is collected with a plate-reading luminometer, such as Envision.

T1 sequence (P51531 whole entry): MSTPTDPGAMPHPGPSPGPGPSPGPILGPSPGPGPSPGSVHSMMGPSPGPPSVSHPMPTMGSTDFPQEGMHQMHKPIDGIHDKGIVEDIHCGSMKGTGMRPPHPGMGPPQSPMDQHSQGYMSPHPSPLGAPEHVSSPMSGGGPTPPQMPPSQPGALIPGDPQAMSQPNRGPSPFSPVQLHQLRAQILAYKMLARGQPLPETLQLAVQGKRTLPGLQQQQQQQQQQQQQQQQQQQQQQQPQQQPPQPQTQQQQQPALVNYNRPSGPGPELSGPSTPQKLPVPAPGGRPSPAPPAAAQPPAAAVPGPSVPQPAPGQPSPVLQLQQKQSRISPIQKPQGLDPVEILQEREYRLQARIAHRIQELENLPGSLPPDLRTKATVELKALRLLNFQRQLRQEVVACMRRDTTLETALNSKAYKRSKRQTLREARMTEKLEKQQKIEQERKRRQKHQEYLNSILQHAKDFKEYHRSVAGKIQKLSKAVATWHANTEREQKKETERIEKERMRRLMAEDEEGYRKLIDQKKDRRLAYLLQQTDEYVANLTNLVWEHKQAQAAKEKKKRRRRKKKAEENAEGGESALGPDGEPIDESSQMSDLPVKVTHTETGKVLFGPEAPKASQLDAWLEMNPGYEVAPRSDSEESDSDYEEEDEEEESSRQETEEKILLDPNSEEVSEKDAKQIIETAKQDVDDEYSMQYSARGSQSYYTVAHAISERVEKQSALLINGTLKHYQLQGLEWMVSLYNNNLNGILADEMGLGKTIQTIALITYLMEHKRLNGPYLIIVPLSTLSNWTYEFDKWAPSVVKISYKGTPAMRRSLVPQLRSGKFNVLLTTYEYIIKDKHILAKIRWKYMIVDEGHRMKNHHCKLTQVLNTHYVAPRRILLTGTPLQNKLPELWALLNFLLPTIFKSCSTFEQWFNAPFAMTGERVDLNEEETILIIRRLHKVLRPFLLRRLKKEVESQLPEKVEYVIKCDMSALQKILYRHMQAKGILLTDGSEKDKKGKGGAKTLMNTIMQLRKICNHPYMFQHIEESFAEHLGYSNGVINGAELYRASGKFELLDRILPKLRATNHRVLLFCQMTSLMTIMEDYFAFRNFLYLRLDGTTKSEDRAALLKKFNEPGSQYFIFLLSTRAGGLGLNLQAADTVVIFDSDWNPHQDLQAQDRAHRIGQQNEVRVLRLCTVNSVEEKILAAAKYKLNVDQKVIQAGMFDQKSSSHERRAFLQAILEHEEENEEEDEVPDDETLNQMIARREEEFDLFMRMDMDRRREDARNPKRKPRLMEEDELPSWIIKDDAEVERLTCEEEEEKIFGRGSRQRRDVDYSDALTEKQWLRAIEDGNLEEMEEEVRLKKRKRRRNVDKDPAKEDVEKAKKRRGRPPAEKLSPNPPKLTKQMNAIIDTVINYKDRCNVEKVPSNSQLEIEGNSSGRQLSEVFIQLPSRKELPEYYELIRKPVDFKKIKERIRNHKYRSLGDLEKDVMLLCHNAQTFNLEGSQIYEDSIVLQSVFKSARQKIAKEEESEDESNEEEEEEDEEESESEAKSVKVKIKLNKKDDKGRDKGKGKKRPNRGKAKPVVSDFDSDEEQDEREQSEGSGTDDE

Row | SMILES | IC50 ([1]; Homo sapiens, A549, 6 h) [nM] | Ratio (MDA-MMTV IC50 (μM) divided by A549-MMTV IC50 (μM)) [1] | IC50 [1] [nM] | Ratio (BRG1 IC50 (μM) divided by BRM IC50 (μM)) (BRM)
1 | O=C(NCc1cc2nc(-c3ccc(OC(F)F)c(C4CC4(F)F)n3)ccc2cn1)c1cc(Br)c2c(c1)S(=O)(=O)[C@@H](F)CCO2 (stereo partly shown) [Compound 448] | 19 | 37.60 |  | 
2 | O=C(NCc1cc2nc(-c3cncc(OC(F)F)n3)ccc2cn1)c1cc(Cl)c2c(c1)S(=O)(=O)[C@@H](F)COC2 [Compound 452] | 20.4 | 28.85 |  | 
3 | COc1nc([C@H](F)CF)ccc1-c1ccc2cnc(CNC(=O)c3cc(Cl)c4c(c3)S(=O)(=O)[C@@H](F)COC4)cc2n1 [Compound 380] | 9.1 | 33.44 |  | 
4 | O=C(NCc1cc2nc(-c3cnc(OC(F)F)c(C4CC4)n3)ccc2cn1)c1cc(C(F)F)c2c(c1)S(=O)(=O)[C@@H](F)COC2 [Compound 465] | 22.6 | 55.20 |  | 
5 | O=C(NCc1cc2nc(-n3cc(F)c(OC(F)F)n3)ccc2cn1)c1cc(C(F)F)c2c(c1)S(=O)(=O)[C@@H](F)COC2 [Compound 514, (2R)—N-[[2-[3-(difluoromethoxy)-4-fluoro-pyrazol-1-yl]-1,6-naphthyridin-7-yl]methyl]-6-(difluoromethyl)-2-fluoro-1,1-dioxo-3,5-dihydro-2H-4,1benzoxathiepine-8-carboxamide] | 21 | 32.01 |  | 
6 | CCOc1nc(C(F)F)ncc1-c1ccc2cnc(CNC(=O)c3cc(Cl)c4c(c3)S(=O)(=O)[C@@H](F)COC4)cc2n1 [Compound 505] | 10.6 | 21.63 |  | 
7 | [2H]C([2H])([2H])C([2H])([2H])Oc1nc(C(F)F)ccc1-c1ccc2cnc(CNC(=O)c3cc(Cl)c4c(c3)S(=O)(=O)[C@@H](F)COC4)cc2n1 [Compound 495] | 15.1 | 32.03 |  | 
8 | O=C(NCc1cc2nc(-c3ccc(C(F)F)c(C4CC4)n3)ccc2cn1)c1cc(Cl)c2c(c1)S(=O)(=O)[C@@H](F)CCO2 [Compound 371] | 7.9 | 21.86 |  | 
9 | C[C@@H]1CN(c2cccc(-c3cnc4cnc(CNC(=O)c5cc(F)c6c(c5)S(=O)(=O)[C@@H](F)CCO6)cc4n3)n2)C[C@H](C)O1 [Compound 405, (4R)—N-[[2-[6-[(2R,6S)-2,6-dimethylmorpholin-4-yl]-2-pyridyl]pyrido[3,4-b]pyrazin-7-yl]methyl]-4,9-difluoro-5,5-dioxo-3,4-dihydro-2H-1,5λ6-benzoxathiepine-7-carboxamide] | 2.8 | 22.10 |  | 
10 | COCc1ccc(-c2ccc3cnc(CNC(=O)c4cc(F)c5c(c4)S(=O)(=O)[C@@H](F)CCO5)cc3n2)nc1C1CC1 [Compound 354] | 17.2 | 26.53 |  | 
11 | CCOc1nc(C(F)F)ccc1-c1ccc2cnc(CNC(=O)c3cc(Br)c4c(c3)S(=O)(=O)[C@@H](F)COC4)cc2n1 [Compound 436] | 13.1 | 43.58 |  | 
12 | COCc1ccc(-c2ccc3cnc(CNC(=O)c4cc(Cl)c5c(c4)S(=O)(=O)[C@@H](F)COC5)cc3n2)nc1C1CC1 [Compound 422] | 24.4 | 23.20 |  | 
13 | COc1cccc(-c2ccc3cnc(CNC(=O)c4cc(F)c5c(c4)S(=O)(=O)[C@@H](F)CCO5)cc3n2)n1 [Compound 333] | 15.4 | 31.11 |  | 
14 | COc1nc([C@](C)(F)C(F)F)ccc1-c1ccc2cnc(CNC(=O)c3cc(F)c4c(c3)S(=O)(=O)[C@@H](F)CCOC4)cc2n1 [Compound 367] | 3 | 17.70 |  | 
15 | CCOc1nc([C@H](F)CF)ccc1-c1ccc2cnc(CNC(=O)c3cc(F)c4c(c3)S(=O)(=O)[C@@H](F)CCO4)cc2n1 [Compound 390] | 7.4 | 22.68 |  | 
16 | O=C(NCc1cc2nc(-c3ccc([C@@H](F)CF)c(C4CC4)n3)ccc2cn1)c1cc(F)c2c(c1)S(=O)(=O)[C@@H](F)CCO2 [Compound 406] | 5.9 | 27.42 |  | 
17 | COc1nc([C@@H](F)CF)ccc1-c1ccc2cnc(CNC(=O)c3cc(Cl)c4c(c3)S(=O)(=O)[C@@H](F)COC4)cc2n1 [Compound 381] | 6.8 | 29.06 |  | 
18 | [2H]C([2H])([2H])Oc1ccc(-c2ccc3cnc(CNC(=O)c4cc(Cl)c5c(c4)S(=O)(=O)[C@@H](F)COC5)cc3n2)nc1C1CC1(F)F (stereo partly shown) [Compound 506] | 10.2 | 42.09 |  | 
19 | Cc1cc(C(=O)NCc2cc3nc(N4CCOc5ccc(C(F)F)nc54)ccc3cn2)cc2c1OCC[C@H](F)S2(=O)=O [Compound 340] | 15.8 | 26.04 |  | 
20 | [2H]C([2H])([2H])C([2H])([2H])Oc1nc([C@H](F)CF)ccc1-c1ccc2cnc(CNC(=O)c3cc(Br)c4c(c3)S(=O)(=O)[C@@H](F)COC4)cc2n1 [Compound 485] | 12 | 49.42 |  | 
21 | CCOc1nc([C@H](F)CF)ccc1-c1ccc2cnc(CNC(=O)c3cc(C(F)F)c4c(c3)S(=O)(=O)[C@@H](F)COC4)cc2n1 [Compound 518] |  | 35.47 | 21 | 
22 | O=C(NCc1cc2nc(-c3cccc(C4CC4)n3)ccc2cn1)c1cc(Br)c2c(c1)S(=O)(=O)[C@@H](F)COC2 [Compound 417] | 27.5 | 39.11 |  | 
23 | CCOc1nc([C@@H](F)CF)ccc1-c1ccc2cnc(CNC(=O)c3cc(Br)c4c(c3)S(=O)(=O)[C@@H](F)COC4)cc2n1 [Compound 517] |  | 35.51 | 20.4 | 
24 | COc1nc([C@@](C)(F)C(F)F)ccc1-c1ccc2cnc(CNC(=O)c3cc(F)c4c(c3)S(=O)(=O)[C@@H](F)CCO4)cc2n1 [Compound 356] | 14.6 | 23.98 |  | 
25 | O=C(NCc1cc2nc(-c3ccc([C@H](F)C(F)F)c(C4CC4)n3)ccc2cn1)c1cc(F)c2c(c1)S(=O)(=O)[C@@H](F)COC2 [Compound 453] | 8.8 | 28.72 |  | 
26 | CCOc1nc([C@@H](F)CF)ccc1-c1ccc2cnc(CNC(=O)c3cc(Cl)c4c(c3)S(=O)(=O)[C@@H](F)COC4)cc2n1 [Compound 516] |  | 31.51 | 12.1 | 
27 | CCOc1nc([C@@H](F)CF)ccc1-c1ccc2cnc(CNC(=O)c3cc(Cl)c4c(c3)S(=O)(=O)[C@@H](F)CCO4)cc2n1 [Compound 423] | 10.4 | 32.08 |  | 
28 | O=C(NCc1cc2nc(-c3ccc([C@H](F)C(F)F)c(C4CC4)n3)ccc2cn1)c1cc(Cl)c2c(c1)S(=O)(=O)[C@@H](F)COC2 [Compound 491] | 18.2 | 23.59 |  | 
29 | C[C@@H]1CN(c2cccc(-c3ccc4cnc(CNC(=O)c5cc(F)c6c(c5)S(=O)(=O)[C@@H](F)CCO6)cc4n3)n2)C[C@H](C)O1 [Compound 325] |  |  |  | 13.06
30 | C[C@@H]1CN(c2cccc(-c3ccc4cnc(CNC(=O)c5cc(F)c6c(c5)S(=O)(=O)[C@@H](F)CCO6)cc4n3)n2)C[C@H](C)O1 [Compound 14] |  |  |  | 9.92
